Experimental data published in the kinase profiling compilation of Christmann-Franck et al. (2016).

Assays:
Experiment in all cases: radiometric filter-binding kinase assay, Kinaseprofiler
[1] = molecular target: CHEK1 (human) (UniProt O14757); details: compound 1.0 µM; ATP 90 µM
[2] = molecular target: NEK7 (human) (UniProt Q8TDX7); details: compound 1.0 µM; ATP 45 µM
[3] = test system: MARK1 (human), Q9P0L2 [V16E/T20S]; details: compound 1.0 µM; ATP 10 µM
[4] = molecular target: PLK2 (human) (UniProt Q9NYY3); details: compound 1.0 µM; ATP 120 µM
[5] = molecular target: PRKCB2 (human) (UniProt P05771); details: compound 1.0 µM; ATP 10 µM
[6] = molecular target: CSNK2A1 CSNK2B CSNK2A2 (human) (UniProt P19784+P68400+P67870); details: compound 1.0 µM; ATP 15 µM
[7] = molecular target: SIK1 (human) (UniProt P57059); details: compound 1.0 µM; ATP 45 µM
[8] = molecular target: BRSK1 (human) (UniProt Q8TDC3); details: compound 1.0 µM; ATP 200 µM
[9] = molecular target: TBK1 (human) (UniProt Q9UHD2); details: compound 1.0 µM; ATP 155 µM
Chain of TBK1 (human) (Q9UHD2 whole entry, looked up): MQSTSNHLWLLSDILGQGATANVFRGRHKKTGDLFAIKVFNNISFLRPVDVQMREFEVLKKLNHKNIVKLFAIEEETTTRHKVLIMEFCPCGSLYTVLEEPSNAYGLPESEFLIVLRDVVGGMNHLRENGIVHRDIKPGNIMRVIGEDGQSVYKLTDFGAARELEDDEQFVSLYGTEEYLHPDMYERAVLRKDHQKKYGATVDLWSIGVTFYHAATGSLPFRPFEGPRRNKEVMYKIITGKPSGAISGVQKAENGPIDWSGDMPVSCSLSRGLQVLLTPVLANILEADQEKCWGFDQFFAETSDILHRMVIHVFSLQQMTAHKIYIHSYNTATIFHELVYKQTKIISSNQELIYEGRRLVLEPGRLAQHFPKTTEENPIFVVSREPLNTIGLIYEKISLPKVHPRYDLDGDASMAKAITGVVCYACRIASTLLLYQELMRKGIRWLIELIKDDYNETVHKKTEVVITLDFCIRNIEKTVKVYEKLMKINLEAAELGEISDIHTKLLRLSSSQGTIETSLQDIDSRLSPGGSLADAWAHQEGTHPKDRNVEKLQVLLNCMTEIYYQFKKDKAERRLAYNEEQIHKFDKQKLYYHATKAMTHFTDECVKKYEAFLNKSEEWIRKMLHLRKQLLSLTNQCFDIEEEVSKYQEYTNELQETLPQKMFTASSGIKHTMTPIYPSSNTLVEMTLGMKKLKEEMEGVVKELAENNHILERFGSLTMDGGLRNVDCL

[10] = molecular target: MYLK (human) (UniProt Q15746); details: compound 1.0 µM; ATP 70 µM
[11] = molecular target: PRKCQ (human) (UniProt Q04759); details: compound 1.0 µM; ATP 15 µM
Chain of PRKCQ (human) (Q04759 whole entry, looked up): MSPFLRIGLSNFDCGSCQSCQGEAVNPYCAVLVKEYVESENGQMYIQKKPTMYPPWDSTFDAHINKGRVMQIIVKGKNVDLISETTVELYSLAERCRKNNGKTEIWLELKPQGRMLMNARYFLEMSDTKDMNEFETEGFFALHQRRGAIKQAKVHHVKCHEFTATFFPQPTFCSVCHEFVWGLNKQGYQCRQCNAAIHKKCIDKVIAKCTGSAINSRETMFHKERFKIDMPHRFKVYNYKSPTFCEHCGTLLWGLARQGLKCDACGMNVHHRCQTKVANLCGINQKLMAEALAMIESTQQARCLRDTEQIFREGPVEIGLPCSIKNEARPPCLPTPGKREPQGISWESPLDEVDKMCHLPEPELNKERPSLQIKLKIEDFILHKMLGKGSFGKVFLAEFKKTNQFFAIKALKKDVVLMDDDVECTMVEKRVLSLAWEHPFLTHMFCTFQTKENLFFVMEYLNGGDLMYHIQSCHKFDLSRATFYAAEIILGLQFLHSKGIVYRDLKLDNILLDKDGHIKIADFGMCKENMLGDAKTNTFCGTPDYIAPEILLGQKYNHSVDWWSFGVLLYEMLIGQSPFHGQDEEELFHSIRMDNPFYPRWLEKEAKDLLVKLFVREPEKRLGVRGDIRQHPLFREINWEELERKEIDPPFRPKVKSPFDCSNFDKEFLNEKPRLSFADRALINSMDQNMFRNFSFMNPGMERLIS

[12] = molecular target: PRKCZ (human) (UniProt Q05513); details: compound 1.0 µM; ATP 15 µM
[13] = molecular target: PAK4 (human) (UniProt O96013); details: compound 1.0 µM; ATP 10 µM
Chain of PAK4 (human) (O96013 whole entry, looked up): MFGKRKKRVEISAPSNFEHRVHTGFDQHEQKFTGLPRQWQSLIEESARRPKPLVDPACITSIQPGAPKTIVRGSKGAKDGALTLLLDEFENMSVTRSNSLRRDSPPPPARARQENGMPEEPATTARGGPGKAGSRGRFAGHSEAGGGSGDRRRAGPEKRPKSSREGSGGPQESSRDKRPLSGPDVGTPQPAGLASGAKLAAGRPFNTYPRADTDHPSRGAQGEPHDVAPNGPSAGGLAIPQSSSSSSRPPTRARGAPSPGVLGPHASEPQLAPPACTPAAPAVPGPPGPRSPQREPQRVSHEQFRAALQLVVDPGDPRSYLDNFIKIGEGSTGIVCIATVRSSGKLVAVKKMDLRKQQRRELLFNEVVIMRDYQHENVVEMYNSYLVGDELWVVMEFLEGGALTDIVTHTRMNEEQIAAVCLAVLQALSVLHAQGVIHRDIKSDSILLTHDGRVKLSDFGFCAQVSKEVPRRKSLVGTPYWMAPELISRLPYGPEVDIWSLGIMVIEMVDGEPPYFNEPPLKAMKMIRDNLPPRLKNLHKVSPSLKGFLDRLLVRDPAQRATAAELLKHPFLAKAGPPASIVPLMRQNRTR

[14] = molecular target: CDK5 CDK5R1 p25 (human) (UniProt Q00535+Q15078); details: compound 1.0 µM; ATP 15 µM
[15] = test system: FLT4 (human), P35916 [V1128L/H1146R]; details: compound 1.0 µM; ATP 200 µM
[16] = molecular target: FGR (human) (UniProt P09769); details: compound 1.0 µM; ATP 45 µM
Chain of FGR (human) (P09769 whole entry, looked up): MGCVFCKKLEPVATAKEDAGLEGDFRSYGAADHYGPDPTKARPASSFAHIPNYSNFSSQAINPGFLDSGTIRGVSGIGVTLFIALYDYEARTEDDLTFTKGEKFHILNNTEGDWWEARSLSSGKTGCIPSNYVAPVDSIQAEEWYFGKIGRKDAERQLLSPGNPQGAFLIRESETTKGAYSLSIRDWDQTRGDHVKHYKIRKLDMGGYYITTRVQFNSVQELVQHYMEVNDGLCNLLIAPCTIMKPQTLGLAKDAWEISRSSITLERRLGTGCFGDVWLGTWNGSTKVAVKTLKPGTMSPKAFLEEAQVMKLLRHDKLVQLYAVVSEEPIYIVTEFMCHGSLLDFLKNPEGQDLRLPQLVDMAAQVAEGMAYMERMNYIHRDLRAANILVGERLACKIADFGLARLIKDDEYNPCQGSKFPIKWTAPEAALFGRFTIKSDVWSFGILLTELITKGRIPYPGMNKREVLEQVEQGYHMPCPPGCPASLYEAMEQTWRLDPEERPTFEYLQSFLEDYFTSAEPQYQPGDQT

[17] = test system: EGFR (human), P00533 [L858R]; details: compound 1.0 µM; ATP 10 µM
[18] = test system: GSK3B (human), P49841 [H350L]; details: compound 1.0 µM; ATP 15 µM
[19] = molecular target: MAPK10 (human) (UniProt P53779); details: compound 1.0 µM; ATP 10 µM
[20] = molecular target: LIMK1 (human) (UniProt P53667); details: compound 1.0 µM; ATP 15 µM
[21] = molecular target: WNK2 (human) (UniProt Q9Y3S1); details: compound 1.0 µM; ATP 200 µM
[22] = molecular target: LCK (human) (UniProt P06239); details: compound 1.0 µM; ATP 90 µM
[23] = molecular target: CHUK (human) (UniProt O15111); details: compound 1.0 µM; ATP 10 µM
[24] = test system: KIT (human), P10721 [D816V]; details: compound 1.0 µM; ATP 200 µM
[25] = molecular target: FGFR2 (human) (UniProt P21802); details: compound 1.0 µM; ATP 90 µM
Chain of FGFR2 (human) (P21802 whole entry, looked up): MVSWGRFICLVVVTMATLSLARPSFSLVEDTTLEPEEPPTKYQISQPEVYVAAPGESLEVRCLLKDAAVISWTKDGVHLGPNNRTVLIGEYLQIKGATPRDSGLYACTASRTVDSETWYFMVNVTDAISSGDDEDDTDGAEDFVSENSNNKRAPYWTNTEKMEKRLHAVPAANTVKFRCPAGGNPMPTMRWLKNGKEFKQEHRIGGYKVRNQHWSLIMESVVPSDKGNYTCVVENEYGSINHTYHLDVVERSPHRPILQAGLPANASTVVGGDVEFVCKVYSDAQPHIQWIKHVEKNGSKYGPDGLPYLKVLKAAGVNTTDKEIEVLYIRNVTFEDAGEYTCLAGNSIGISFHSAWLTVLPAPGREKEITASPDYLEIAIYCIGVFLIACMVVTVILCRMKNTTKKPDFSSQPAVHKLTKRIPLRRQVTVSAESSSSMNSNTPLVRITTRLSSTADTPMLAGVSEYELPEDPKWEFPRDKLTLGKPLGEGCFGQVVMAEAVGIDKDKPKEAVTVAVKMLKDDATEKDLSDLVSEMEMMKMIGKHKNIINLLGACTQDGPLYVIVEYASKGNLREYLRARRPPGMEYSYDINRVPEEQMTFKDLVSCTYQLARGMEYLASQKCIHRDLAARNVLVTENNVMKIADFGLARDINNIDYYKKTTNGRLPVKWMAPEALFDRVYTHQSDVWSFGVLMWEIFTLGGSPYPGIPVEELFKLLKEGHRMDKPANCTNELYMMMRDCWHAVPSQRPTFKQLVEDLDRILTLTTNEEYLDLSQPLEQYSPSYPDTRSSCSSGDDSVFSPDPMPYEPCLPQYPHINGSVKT

[26] = molecular target: ITK (human) (UniProt Q08881); details: compound 1.0 µM; ATP 200 µM
[27] = molecular target: ROCK1 (human) (UniProt Q13464); details: compound 1.0 µM; ATP 70 µM
[28] = molecular target: JAK3 JH1 catalytic (human) (UniProt P52333); details: compound 1.0 µM; ATP 10 µM
[29] = test system: PRKCH (human), P24723 [V108L/G109R/L392Q]; details: compound 1.0 µM; ATP 45 µM
[30] = test system: EEF2K (human), O00418 [H23R]; details: compound 1.0 µM; ATP 15 µM
[31] = molecular target: MAPKAPK3 (human) (UniProt Q16644); details: compound 1.0 µM; ATP 90 µM
Chain of MAPKAPK3 (human) (Q16644 whole entry, looked up): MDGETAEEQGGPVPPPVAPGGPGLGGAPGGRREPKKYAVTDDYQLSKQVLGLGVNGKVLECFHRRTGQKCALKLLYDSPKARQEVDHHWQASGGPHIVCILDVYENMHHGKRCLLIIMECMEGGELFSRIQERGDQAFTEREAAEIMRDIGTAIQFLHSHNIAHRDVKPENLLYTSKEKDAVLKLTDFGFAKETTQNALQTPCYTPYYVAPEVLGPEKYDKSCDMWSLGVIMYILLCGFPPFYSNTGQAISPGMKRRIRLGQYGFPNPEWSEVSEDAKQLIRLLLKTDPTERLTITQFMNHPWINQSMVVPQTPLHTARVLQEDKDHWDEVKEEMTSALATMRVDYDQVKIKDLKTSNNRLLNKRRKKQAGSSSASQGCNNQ

[32] = molecular target: EPHB1 (human) (UniProt P54762); details: compound 1.0 µM; ATP 200 µM
[33] = test system: MAP2K4 (mouse); details: compound 1.0 µM; accession and sequence are those of the human protein
[34] = molecular target: SRC (human) (UniProt P12931); details: compound 1.0 µM; ATP 200 µM
[35] = molecular target: INSRR (human) (UniProt P14616); details: compound 1.0 µM; ATP 200 µM
Chain of INSRR (human) (P14616 whole entry, looked up): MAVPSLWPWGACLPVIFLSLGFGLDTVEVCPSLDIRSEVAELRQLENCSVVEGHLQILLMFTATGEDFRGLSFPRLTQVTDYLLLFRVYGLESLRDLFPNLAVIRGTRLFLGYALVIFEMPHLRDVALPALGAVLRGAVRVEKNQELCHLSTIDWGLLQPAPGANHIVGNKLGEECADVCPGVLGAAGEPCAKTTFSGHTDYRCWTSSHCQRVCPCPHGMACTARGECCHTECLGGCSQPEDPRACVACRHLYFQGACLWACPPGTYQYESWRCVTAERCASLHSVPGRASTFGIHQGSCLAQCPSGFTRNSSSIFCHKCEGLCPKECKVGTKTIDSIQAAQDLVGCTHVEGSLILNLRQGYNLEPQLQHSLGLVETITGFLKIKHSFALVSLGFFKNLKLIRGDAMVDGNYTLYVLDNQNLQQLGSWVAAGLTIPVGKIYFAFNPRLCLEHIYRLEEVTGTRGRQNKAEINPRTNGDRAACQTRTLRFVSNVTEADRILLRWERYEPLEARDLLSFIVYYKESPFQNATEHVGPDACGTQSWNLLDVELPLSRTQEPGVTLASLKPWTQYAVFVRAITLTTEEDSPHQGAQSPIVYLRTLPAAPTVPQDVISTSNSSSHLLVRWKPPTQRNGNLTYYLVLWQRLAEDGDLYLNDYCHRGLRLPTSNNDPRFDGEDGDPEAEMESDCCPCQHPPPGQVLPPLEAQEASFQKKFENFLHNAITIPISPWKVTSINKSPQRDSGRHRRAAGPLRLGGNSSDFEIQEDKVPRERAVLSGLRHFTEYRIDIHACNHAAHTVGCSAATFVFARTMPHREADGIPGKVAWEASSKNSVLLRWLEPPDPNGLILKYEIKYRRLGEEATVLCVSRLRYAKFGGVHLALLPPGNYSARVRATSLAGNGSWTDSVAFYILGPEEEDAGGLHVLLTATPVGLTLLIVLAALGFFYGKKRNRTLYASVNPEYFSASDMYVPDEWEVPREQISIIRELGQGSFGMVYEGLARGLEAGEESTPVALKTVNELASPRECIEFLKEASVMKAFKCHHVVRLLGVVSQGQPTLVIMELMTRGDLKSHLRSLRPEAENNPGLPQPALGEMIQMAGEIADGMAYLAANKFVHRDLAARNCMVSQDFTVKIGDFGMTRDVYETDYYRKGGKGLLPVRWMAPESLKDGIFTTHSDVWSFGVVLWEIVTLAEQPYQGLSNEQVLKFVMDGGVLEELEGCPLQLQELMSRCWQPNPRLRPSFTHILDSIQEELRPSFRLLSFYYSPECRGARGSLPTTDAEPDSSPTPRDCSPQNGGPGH

[36] = molecular target: ACVR1B (human) (UniProt P36896); details: compound 1.0 µM; ATP 10 µM
[37] = molecular target: ERBB4 (human) (UniProt Q15303); details: compound 1.0 µM; ATP 15 µM
[38] = molecular target: EPHA1 (human) (UniProt P21709); details: compound 1.0 µM; ATP 45 µM

Which results are given for `CN(C)S(=O)(=O)Nc1ccc2ccc3ncc(-c4cnn(C)c4)cc3c(=O)c2c1`?
residual activity [1]: 98%; residual activity [2]: 112%; residual activity [3]: 62%; residual activity [4]: 58%; residual activity [5]: 105%; residual activity [6]: 117%; residual activity [7]: 87%; residual activity [8]: 74%; residual activity [9]: 93%; residual activity [10]: 61%; residual activity [11]: 100%; residual activity [12]: 95%; residual activity [13]: 94%; residual activity [14]: 88%; residual activity [15]: 10%; residual activity [16]: 90%; residual activity [17]: 41%; residual activity [18]: 110%; residual activity [19]: 53%; residual activity [20]: 72%; residual activity [21]: 126%; residual activity [22]: 50%; residual activity [23]: 98%; residual activity [24]: 95%; residual activity [25]: 12%; residual activity [26]: 18%; residual activity [27]: 107%; residual activity [28]: 81%; residual activity [29]: 126%; residual activity [30]: 93%; residual activity [31]: 102%; residual activity [32]: 67%; residual activity [33]: 87%; residual activity [34]: 125%; residual activity [35]: 103%; residual activity [36]: 100%; residual activity [37]: 84%; residual activity [38]: 65%
